# Laboratory results: ChEMBL document CHEMBL1132351, “Synthesis, in vitro pharmacology, and molecular modeling of very potent tacrine-huperzine A hybrids as acetylcholinesterase inhibitors of potential interest for the treatment of Alzheimer's disease” (J Med Chem, 1999)
# Where “and” joins values, the source holds several entries; their conditions need not be identical. Equal entries are not always repeated.
# How the values were obtained:
# Cholinesterase = Cholinesterase (Homo sapiens, UniProt P06276)
# Description: Inhibition of butyrylcholinesterase (BChE) activity in human serum
# [1] = Drug concentration that reaches 50% of antagonism index (AI); No reversion at 10 uM concentration; assay type: functional
# [2] = Drug concentration that reaches 50% of antagonism index (AI); No reversion at 10 uM concentration.; assay type: functional
# Acetylcholinesterase = biological target: T1, Acetylcholinesterase (Bos taurus, UniProt P23795)
# T1 sequence (P23795 whole entry): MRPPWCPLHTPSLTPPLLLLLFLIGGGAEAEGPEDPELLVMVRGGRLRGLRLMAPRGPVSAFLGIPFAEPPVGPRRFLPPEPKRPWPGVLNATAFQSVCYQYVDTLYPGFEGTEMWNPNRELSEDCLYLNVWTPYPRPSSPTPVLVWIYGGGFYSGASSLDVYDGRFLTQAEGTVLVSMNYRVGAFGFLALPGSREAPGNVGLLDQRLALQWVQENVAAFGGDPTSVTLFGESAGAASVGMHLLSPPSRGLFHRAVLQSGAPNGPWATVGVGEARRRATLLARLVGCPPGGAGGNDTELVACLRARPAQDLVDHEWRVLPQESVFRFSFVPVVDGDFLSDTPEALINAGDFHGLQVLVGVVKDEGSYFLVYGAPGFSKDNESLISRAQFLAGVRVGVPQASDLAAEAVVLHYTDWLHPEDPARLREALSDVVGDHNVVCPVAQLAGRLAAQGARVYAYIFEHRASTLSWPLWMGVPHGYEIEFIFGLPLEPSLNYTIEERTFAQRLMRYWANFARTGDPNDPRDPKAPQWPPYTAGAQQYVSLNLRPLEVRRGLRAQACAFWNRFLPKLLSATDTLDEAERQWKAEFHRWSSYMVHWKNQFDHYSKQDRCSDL
# Description: Inhibition of acetylcholinesterase (AChE)activity in bovine erythrocytes
# Cholinesterase, sequence (P06276 whole entry): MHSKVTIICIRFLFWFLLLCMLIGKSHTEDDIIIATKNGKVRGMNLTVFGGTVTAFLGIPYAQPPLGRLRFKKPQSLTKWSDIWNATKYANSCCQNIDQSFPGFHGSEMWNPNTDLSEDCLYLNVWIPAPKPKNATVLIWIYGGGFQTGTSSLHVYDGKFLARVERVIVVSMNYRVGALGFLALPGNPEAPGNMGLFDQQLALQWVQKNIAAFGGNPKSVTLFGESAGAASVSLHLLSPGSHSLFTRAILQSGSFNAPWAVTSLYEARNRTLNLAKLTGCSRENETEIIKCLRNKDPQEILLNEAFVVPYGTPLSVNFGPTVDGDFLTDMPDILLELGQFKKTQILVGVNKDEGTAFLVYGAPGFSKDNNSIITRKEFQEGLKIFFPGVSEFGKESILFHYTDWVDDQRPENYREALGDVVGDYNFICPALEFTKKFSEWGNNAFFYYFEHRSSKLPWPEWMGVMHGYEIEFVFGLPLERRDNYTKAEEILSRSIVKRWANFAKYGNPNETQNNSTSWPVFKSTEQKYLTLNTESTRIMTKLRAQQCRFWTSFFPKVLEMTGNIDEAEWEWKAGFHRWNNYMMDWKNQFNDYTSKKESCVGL
SMILES,IC50 (Cholinesterase),AI50 [1],AI50 [2],IC50 (Acetylcholinesterase) [nM]
CCC1=CC2Cc3nc4cc(C)ccc4c(N)c3C(C1)C2 (centres undefined) [listing 1 of 2 here],115 nM and 347 nM,,,
CCC1=CC2Cc3nc4cc(C)ccc4c(N)c3C(C1)C2 (centres undefined) [listing 2 of 2 here],,No reversion,,
Nc1c2c(nc3ccccc13)CC1C=C(c3ccccc3)CC2C1 (racemic),,,No reversion,126
CC1=CC2Cc3nc4cccc(F)c4c(N)c3C(C1)C2 (racemic),543 nM,,,31.4
CC1=CC2Cc3nc4cc(C)ccc4c(N)c3C(C1)C2 (racemic),449 nM,,,
CCC1=CC2Cc3nc4cccc(C)c4c(N)c3C(C1)C2 (racemic),512 nM,,,29.8
CC1=CC2Cc3nc4ccccc4c(N)c3C(C1)C2 (racemic),126 nM,,,65
CCC1=CC2Cc3nc4cc(C)ccc4c(N)c3C(C1)C2 (racemic),208 nM,,,12
CC(C)C1=CC2Cc3nc4ccccc4c(N)c3C(C1)C2 (racemic),,,,103
CC(C)(C)C1=CC2Cc3nc4ccccc4c(N)c3C(C1)C2 (racemic),,,,267
C=CCC1=CC2Cc3nc4ccccc4c(N)c3C(C1)C2 (racemic),,,No reversion at 10 uM concentration,150
CCC1=CC2Cc3nc4ccccc4c(N)c3C(C1)C2 (racemic),79.3 nM,,,38.5
CC1=C[C@@H]2Cc3nc4cc(F)ccc4c(N)c3[C@H](C1)C2 (racemic),197 nM,,,8.5
"CC1=CC2Cc3nc4ccccc4c(N)c3C(C1)C2 (single isomer, unassigned; (+))",316 nM,,,329
"CCC1=CC2Cc3nc4ccccc4c(N)c3C(C1)C2 (single isomer, unassigned; (+))",109 nM,,,888
"CC1=CC2Cc3nc4ccccc4c(N)c3C(C1)C2 (single isomer, unassigned; (-))",89 nM,,,
"CCC1=CC2Cc3nc4ccccc4c(N)c3C(C1)C2 (single isomer, unassigned; (-))",63.3 nM,,,27.4
C/C=C1\[C@H]2C=C(C)C[C@]1(N)c1ccc(=O)[nH]c1C2 [HUPERZINE A],> 100000 nM,,,
